Test results published in patent US6692927B2, “Bax degradation involvement in tumor survival and progression” (University of South Florida, priority 2000, dated 2004).
Where a SMILES comes first, the peptide text is derived from it. [ ]: non-standard residue; d: D form. The star is where a group is joined. Nva = CCC[C@H](N)C(=O)O; Cbz = O=C(OCc1ccccc1)*

What was measured:
[1] = tested on: human breast cancer (SK-BR-3, MDA-MB-468) cells; assay: cellular detachment of breast cancer cells; assay type: cell-based; details: breast cancer versus normal (MCF-10A) cells
Experimental: Proteasome inhibitors selectively induce apoptosis in human breast cancer, but not normal, cells. […] Cells of both human breast cancer lines became detached in a lactacystin-concentration-dependent manner (FIG. 3). No detachment was induced in the normal human breast cells MCF-10A after treatment with lactacystin for 48 hours (FIG. 3) or even 72 hours. Proteasome inhibition-induced detachment of breast cancer cells is due to apoptosis (An et al., in press).

Jurkat T cells = assay: Western blot and Bax IP/ubiquitin blot in Jurkat T cells; assay type: cell-based, human
Experimental: FIGS. 8A-8D show proteasome inhibition accumulates Bax to mitochondria/cytoplasm and increases interaction between Bax and Bcl-2 proteins. Jurkat cells (0 h; FIG. 8A and FIG. 8B) or Jurkat cells overexpressing Bcl-2 (0 h; FIG. 8C and FIG. 8D) were treated by either 10 μM lactacystin (FIGS. 8A-8C), 50 μM LLnV (FIG. 8D), or 50 μM LLM (FIG. 8A and FIG. 8B) for the indicated hours. (FIG. 8A and FIG. 8B) Western blotting with antibodies to PARP and Bax were performed as described in FIG. 7. (FIG. 8C) Immunohistochemistry (see MATERIALS AND METHODS). Localization of Bax protein (green) and nuclei (red) are shown. (FIG. 8D) Bax immunoprecipitates, prepared by an agarose-conjugated N-20 Bax antibody, were immunoblotted first with the 6A7 Bax antibody (upper) and then reblotted with a Bcl-2 antibody (lower).
FIGS. 9A-9F show Bax degradation depends on ubiquitination, proteasome and ATP. (FIG. 9A) Jurkat cells (0 h) were treated with either 50 μM LLnV or 10 μM lactacystin, followed by preparation of Bax immunoprecipitates (with clone 6A7), which were immunoblotted with an ubiquitin antibody. Positions of putative ubiquitinated Bax proteins (p47, p55) are indicated at left. The nature of the ˜30 kDa and ˜84 kDa remains unclear. (FIG. 9B) The [^35S]-labeled Bax (upper) or Bcl-2 (lower) protein (1 μl) were incubated at 37° C. for 2 h with either buffer Z only (lane 1) or […] protein extract of MCF-7 cells grown exponentially (lane 2) or pretreated for 8 h with […] LLnV (lane 3). (FIG. 9C) The [^35S]-labeled Bax protein (1 μl) was incubated with either buffer Z only (lane 1) or 100 μg MCF-7 cell lysate at 37° C. for 4 h, in the presence of an indicated inhibitor (100 mM; lanes 3-8) or an equal volume of DMSO (lane 2) in buffer Z. A weak band of ˜16 kDa (indicated by an arrow) is probably an intermediate product of proteasome-mediated Bax degradation. (FIG. 9D) The proteasome in MCF-7 whole cell lysate (W lys, lane 1) was precipitated by using either ultraspin (ULS) or a proteasome subunit a6 antibody (IP). Both supernatant (lanes 2, 4) and pellet (lanes 3, 5) fractions were examined by Western blot assay using antibody to the proteasome a6 subunit (MW 33 kDa). (FIG. 9E) Bax degradation assay was performed as in FIG. 9B, with addition of buffer Z (lane 1) or 100 μg protein from MCF-7 whole cell lysate (lane 2), ultraspun supernatant (lane 3) or plus the pellet (lane 4), immunodepleted supernatant (lane 5) or plus a purified 20S proteasome ([…]; lane 6), or the purified proteasome alone (2 μg; lane 7). (FIG. 9F) Bax degradation assay was performed as in FIG. 9B, in the absence (lane 3) or presence of 10 mM ATP (lane 2) or 10 mM ATP-y-S (lane 4). […]

SMILES | cellular detachment [1] | p55 and p47 levels (putative ubiquitinated Bax) (Jurkat T cells; 50 μM LLnV, 8 hours) | p55 and p47 levels (putative ubiquitinated Bax) (Jurkat T cells; 10 μM lactacystin, 4 hours) | Bax accumulation and PARP cleavage (Jurkat T cells; 10 microM)
CCC[C@@H](C=O)NC(=O)[C@H](CC(C)C)NC(=O)[C@H](CC(C)C)NC(=O)OCc1ccccc1 [LLnV] (Cbz-Leu-Leu-[Nva]-aldehyde) | selectively induced cellular detachment | significantly increased | – | –
CC(=O)N[C@@H](CSC(=O)[C@]1([C@@H](O)C(C)C)NC(=O)[C@H](C)[C@@H]1O)C(=O)O [lactacystin] | selectively induced cellular detachment | – | significantly increased | induced Bax accumulation and PARP cleavage
